The text below walks through data of patent US9353075B2, “Disubstituted beta-lactones as inhibitors of N-acylethanolamine acid amidase (NAAA)” (The Regents of the University of California, priority 2011, dated 2016).

For one series, the target named is Acid Ceramidase (AC) (Rattus norvegicus (Rat), UniProt Q6P7S1). Description: Acid ceramidase inhibition, recombinant rat AC, LC-MS. The conditions noted are these: read-out: r-AC % inhib. @ 10 μM. The series is classed as biochemical. As for the experimental part:
The PCR (High Fidelity PCR Master, Roche) product was subcloned into a pEF6-[…] vector (Invitrogen) to construct a mammalian expression vector encoding […]-tagged rat AC. HEK293 cells were transfected with pEF6-rAC-[…] using Super-Fect reagent (Qiagen) and screened with G418 (0.3 mg/mL). Cells were suspended in 20 mM Tris HCl (pH 7.5) containing 0.32M sucrose, sonicated and centrifuged at 800×g for 15 minutes at 4° C. The supernatants were centrifuged again at 12,000×g for 30 minutes at 4° C. The pellets were suspended in phosphate-buffered saline (PBS) and subjected to 2 freeze-thaw cycles at -80° C. The suspensions were centrifuged at 105,000×g for 1 hour at 4° C. The supernatants containing recombinant AC were kept at -80° C. until use. Protein concentration was measured using the bicinchoninic acid (BCA) assay (Pierce). […] Reactions were stopped by addition of a mixture of chloroform/methanol (2:1, vol/vol) containing 1 nmol of heptadecanoic acid (HDA; NuChek Prep). […] HDA was eluted on an XDB Eclipse C18 column isocratically at 2.2 mL/min for 1 minute with a solvent mixture of 95% methanol and 5% water, both containing 0.25% acetic acid and 5 mM ammonium acetate. The column temperature was 50° C. Electrospray ionization (ESI) was in the negative mode, capillary voltage as 4 kV, and fragmentor voltage was 100 V. N2 was used as drying gas at a flow rate of 13 L/min and a temperature of 350° C. Nebulizer pressure was set at 60 psi. We monitored [M-H]- in the selected-ion monitoring (SIM) mode using HDA as internal standard. Calibration curves were generated using commercial lauric acid (Nu-Chek Prep; m/z=199).

Series [1] in a line: Chemical stability in PBS buffer pH 7.4. The conditions noted are these: phosphate-buffered saline, 0.01M PBS pH 7.4, 37° C., read-out: Stability in PBS buffer, pH 7.4 t1/2. The series is classed as physicochemical. As for the experimental part:
Chemical stability of select compounds was evaluated under physiological pH conditions (0.01M Phosphate-Buffered Saline, pH 7.4) for up to 24 h. Stock solutions of each compound (10 mM) were prepared freshly in DMSO. Each compound was incubated at a final concentration of 10 μM (1% DMSO) in pre-heated buffer (0.01M Phosphate-Buffered Saline (PBS), pH 7.4 at 37° C.). The sample solutions were divided into aliquots in glass vials (pre-heated at 37° C.) for each time point. The samples were maintained at 37° C. in the UPLC/MS Autosampler during the study (no shaking). A reference solution of each compound (final concentration: 10 μM at 1% DMSO) in pre-heated CH3CN (37° C.) was prepared from the stock solutions (10 mM in DMSO). The reference solutions were maintained at 37° C. in the UPLC/MS Autosampler during the study (no shaking). An internal standard (100 nM) was added to the sample and reference solutions. For each time point, the samples were analyzed directly by LC/MS without any further sample preparation. The samples were analyzed (triplicate injection) by monitoring the MS trace by Multiple Reaction Monitoring (MRM). The compound concentration (expressed as %) was calculated by dividing the peak area at each time point by the peak area at t=0 min. The reference solution was analyzed at the beginning (t=0 min.), and at the end of the study (t=24 h). The apparent half-lives (t1/2) of the disappearance of compound were calculated by a one-phase decay equation using a non-linear regression of compound concentration versus time.
The analyses were performed on a Waters ACQUITY UPLC/MS TQD system consisting of a TQD (Triple Quadropole Detector) Mass Spectrometer equipped with an Electrospray Ionization interface and a Photodiode Array Detector. The analyses were run on an ACQUITY UPLC BEH C18 1.7 μm 2.1×50 mm column with a VanGuard BEH C18 1.7 μm pre-column at 40° C. The mobile phase was 0.1% HCOOH in H2O (A) and 0.1% HCOOH in CH3CN (B) using a linear gradient: 0-0.2 min.: 5% B, 0.2-2.2 min.: 5-95% B, 2.2-2.3 min.: 95-5% B, 2.3-3 min.: 5% B with flow rate at 0.5 mL/min. […]

The next series deals with r-NAAA (Rattus norvegicus (Rat), UniProt Q5KTC7). Description: r-NAAA inhibition, rat lung lysosomal NAAA preparation, UPLC/MS. The series is classed as biochemical. The procedure, abridged:
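Enzyme was a lysosomal fraction from male Sprague-Dawley rat lung, preincubated with compound 30 min at 37 °C in NaH2PO4/citrate pH 4.5, 1% Triton-X, 3 mM DTT. Heptadecenoylethanolamide (50 μM) was hydrolysed 30 min at 37 °C. Heptadecenoic acid was quantified by UPLC/MS against vehicle, and IC50 fitted by non-linear regression.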

A word on the IC50: it is the midpoint of a concentration-inhibition curve. A high value points to a need for much substance.

Chain of Acid Ceramidase (AC) (Q6P7S1 21-394): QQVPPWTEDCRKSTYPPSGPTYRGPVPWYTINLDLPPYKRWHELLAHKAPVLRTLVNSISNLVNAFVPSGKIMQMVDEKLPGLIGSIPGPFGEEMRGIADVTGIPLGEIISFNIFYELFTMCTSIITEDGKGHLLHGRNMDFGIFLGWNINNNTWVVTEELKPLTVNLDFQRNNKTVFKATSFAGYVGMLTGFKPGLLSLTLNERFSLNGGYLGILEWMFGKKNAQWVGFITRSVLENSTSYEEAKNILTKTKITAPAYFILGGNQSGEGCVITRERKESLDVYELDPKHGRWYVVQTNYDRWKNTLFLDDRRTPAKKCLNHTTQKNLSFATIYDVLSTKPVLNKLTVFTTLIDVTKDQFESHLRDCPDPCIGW
Chain of r-NAAA (Q5KTC7 34-362): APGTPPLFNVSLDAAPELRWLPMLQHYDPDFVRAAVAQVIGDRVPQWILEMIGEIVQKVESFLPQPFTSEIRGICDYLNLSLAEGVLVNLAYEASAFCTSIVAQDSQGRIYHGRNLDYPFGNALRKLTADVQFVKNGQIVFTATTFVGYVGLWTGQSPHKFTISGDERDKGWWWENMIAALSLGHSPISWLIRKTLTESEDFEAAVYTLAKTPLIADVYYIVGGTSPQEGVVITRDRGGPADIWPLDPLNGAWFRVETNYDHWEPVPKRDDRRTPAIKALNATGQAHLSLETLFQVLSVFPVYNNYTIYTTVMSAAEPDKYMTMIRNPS

For the compound `C[C@@H]1OC(=O)[C@@H]1NC(=O)CCCCCCc1ccccc1` [corresponding amide analog, reference compound], on Acid Ceramidase (AC), the inhibition at 10 µM is < 10%. The half-life at 10 μM in series [1] is 1.05 h. Also, the IC50 on r-NAAA came out at 0.54 µM.
